Our source for the IC50, GI50 and inhibition values is ChEMBL document CHEMBL4028852, “Design of a Chemical Probe for the Bromodomain and Plant Homeodomain Finger-Containing (BRPF) Family of Proteins” (J Med Chem, 2017).

Series [1] has as its target T1, Peregrin (Homo sapiens, UniProt P55201).
T1 sequence (P55201 whole entry): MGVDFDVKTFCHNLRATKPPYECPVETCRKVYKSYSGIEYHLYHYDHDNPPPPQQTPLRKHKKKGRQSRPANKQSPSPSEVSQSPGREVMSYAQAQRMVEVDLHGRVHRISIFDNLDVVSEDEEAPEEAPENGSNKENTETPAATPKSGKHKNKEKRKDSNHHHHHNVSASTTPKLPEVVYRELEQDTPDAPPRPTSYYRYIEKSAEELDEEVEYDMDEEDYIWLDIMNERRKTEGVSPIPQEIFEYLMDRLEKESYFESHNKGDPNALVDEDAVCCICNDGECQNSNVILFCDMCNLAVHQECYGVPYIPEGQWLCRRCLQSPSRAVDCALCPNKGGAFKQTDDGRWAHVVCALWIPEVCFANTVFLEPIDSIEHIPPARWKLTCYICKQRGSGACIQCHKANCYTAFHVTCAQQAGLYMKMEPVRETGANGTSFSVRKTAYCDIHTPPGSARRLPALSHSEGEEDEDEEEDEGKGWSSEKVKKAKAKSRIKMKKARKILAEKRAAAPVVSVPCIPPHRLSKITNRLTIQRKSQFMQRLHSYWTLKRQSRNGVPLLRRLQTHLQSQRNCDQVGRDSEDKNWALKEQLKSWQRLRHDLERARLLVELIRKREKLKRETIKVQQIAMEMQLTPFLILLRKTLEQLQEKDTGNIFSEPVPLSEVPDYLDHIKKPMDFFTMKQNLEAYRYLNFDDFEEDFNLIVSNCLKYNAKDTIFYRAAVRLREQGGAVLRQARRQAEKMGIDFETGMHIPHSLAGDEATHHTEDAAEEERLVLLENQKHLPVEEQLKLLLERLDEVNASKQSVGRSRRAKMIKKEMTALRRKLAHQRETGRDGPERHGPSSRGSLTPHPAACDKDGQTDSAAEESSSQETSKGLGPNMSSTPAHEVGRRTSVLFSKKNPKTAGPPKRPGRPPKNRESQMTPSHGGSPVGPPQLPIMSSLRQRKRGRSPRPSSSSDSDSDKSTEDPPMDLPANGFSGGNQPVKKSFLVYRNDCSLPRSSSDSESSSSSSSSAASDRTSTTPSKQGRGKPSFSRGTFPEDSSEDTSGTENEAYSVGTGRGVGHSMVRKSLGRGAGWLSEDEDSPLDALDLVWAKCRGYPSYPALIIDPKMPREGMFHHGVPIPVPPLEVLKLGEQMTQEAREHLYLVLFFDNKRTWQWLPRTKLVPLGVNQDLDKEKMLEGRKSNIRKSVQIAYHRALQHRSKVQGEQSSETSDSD
In words: Inhibition of His-tagged BRPF1 (unknown origin) after 30 mins by alphaScreen assay. In general terms: In Alpha technology, singlet oxygen from a donor bead excites a nearby acceptor bead.

The target in series [2] is T2, Bromodomain-containing protein 1 (Homo sapiens, UniProt O95696).
T2 sequence (O95696 whole entry): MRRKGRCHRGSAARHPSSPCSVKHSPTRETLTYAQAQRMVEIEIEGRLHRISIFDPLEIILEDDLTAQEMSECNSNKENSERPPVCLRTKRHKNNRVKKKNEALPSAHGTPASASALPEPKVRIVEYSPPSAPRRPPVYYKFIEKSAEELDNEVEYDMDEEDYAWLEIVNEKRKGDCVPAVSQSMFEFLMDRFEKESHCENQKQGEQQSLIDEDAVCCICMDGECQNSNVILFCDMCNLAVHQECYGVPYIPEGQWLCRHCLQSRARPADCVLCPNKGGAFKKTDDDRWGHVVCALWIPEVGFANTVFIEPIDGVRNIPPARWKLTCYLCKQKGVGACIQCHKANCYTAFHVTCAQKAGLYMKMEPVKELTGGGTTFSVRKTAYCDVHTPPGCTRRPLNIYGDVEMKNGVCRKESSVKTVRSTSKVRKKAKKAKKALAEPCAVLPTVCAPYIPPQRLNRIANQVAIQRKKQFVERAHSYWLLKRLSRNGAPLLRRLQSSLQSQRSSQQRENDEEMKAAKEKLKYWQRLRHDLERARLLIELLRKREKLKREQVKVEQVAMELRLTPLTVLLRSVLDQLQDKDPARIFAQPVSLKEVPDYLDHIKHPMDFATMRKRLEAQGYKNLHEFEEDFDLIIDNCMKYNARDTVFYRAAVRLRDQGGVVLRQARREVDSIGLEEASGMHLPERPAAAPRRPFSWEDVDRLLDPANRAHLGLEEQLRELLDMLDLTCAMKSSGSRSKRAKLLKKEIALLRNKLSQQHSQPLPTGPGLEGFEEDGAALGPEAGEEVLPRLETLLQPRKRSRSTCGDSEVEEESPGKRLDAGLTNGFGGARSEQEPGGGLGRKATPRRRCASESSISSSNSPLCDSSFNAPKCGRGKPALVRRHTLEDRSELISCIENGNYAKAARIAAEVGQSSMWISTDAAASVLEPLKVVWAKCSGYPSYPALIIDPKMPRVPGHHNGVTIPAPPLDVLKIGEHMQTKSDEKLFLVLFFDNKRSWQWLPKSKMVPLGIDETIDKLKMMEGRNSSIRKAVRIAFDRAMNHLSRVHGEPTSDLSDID
As to the kind of experiment: Inhibition of His-tagged BRPF2 (unknown origin) after 30 mins by alphaScreen assay.

For series [3], the target named is T1, Peregrin. In words: Inhibition of BRPF1B (unknown origin) binding to histone H3.3 by nonoBRET assay.
A further series has as its system DMS-114. In words: Inhibition of cell proliferation of human DMS114 cells after 72 hrs by MTS assay. It is filed as functional. The note with it: DMS-114, 72 h. In general terms: Tetrazolium dyes change colour on reduction, which living cells bring about.
The next series addresses Cav1.2 (Homo sapiens, UniProt Q13936). In words: Inhibition of Cav1.2 (unknown origin) at 30 uM.

pIC50: −log10 of the molar value.

Usually pIC50 stands for the negative decadic logarithm of the IC50, by convention in mol/L. For orientation: GI50 means the concentration that inhibits growth by half. What is called inhibition is how much of the control response was suppressed. A low value points to little suppression.

Sequence of Cav1.2 (Q13936 whole entry): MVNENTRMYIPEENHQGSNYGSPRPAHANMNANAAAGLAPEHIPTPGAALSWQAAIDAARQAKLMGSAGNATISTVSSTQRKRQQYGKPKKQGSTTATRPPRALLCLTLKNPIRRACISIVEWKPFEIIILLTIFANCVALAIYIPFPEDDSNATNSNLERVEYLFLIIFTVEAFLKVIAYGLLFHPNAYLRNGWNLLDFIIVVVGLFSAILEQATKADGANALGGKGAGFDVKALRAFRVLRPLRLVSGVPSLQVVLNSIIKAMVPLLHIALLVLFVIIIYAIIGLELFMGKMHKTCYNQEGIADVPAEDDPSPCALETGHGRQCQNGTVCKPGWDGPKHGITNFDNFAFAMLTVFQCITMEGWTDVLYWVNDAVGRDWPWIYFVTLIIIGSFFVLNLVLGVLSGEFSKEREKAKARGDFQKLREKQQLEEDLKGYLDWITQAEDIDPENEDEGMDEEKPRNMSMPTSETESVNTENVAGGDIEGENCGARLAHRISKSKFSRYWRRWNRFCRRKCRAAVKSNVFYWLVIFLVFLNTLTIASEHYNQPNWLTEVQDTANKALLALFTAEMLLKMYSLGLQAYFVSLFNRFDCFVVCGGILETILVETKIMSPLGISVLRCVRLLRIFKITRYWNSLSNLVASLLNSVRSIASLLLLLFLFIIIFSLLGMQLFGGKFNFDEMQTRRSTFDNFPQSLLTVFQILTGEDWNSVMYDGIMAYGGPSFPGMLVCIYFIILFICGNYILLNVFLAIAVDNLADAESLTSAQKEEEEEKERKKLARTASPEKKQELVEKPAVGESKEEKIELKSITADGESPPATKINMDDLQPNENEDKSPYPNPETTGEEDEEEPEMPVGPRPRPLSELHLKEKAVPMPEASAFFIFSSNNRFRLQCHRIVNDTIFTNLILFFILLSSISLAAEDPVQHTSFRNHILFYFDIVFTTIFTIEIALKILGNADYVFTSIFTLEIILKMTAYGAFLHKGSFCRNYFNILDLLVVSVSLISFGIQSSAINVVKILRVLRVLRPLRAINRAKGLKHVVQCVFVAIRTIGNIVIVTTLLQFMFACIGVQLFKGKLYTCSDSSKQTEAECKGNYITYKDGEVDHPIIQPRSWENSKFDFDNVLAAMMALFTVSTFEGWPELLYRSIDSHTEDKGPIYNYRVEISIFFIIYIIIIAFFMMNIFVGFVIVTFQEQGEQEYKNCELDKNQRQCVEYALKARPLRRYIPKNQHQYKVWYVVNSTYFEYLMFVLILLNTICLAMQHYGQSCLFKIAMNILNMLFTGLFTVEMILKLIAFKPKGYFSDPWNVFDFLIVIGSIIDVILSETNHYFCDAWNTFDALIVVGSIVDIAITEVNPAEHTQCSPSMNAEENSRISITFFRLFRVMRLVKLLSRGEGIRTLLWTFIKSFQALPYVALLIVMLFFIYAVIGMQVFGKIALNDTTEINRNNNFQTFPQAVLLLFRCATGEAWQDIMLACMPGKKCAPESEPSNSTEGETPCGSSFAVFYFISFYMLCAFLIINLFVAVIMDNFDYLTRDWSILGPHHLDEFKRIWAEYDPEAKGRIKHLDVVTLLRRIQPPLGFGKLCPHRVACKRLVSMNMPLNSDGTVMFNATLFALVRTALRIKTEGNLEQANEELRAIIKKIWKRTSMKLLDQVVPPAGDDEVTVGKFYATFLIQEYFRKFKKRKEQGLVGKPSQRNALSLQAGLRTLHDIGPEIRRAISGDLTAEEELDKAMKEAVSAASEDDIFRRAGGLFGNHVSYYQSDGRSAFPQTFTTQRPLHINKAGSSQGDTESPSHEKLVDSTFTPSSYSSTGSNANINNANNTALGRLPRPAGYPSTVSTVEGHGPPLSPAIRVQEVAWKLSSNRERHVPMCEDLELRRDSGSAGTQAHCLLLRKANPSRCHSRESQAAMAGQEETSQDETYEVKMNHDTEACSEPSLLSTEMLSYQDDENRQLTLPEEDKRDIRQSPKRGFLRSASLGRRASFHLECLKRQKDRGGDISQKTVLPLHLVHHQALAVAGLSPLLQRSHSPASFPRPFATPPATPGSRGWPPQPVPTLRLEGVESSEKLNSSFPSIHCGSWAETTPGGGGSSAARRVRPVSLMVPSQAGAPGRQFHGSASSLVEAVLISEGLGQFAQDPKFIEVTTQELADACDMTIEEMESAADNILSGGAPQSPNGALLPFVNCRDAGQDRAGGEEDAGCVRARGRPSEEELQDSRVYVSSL

For the molecule `COc1cc(C#N)ccc1S(=O)(=O)Nc1ccc2c(c1)cc(C)c(=O)n2C`, the figures for the pIC50 (at Peregrin [1]; in series [2]; at Peregrin [3]) were 6.94, 6.21 and 7.15, respectively. The molecule also gave a GI50 in the series with DMS-114 of 14.7 µM. The same molecule had an inhibition at 30 µM on Cav1.2 of less than 40%.
